The results in this text go back to ChEMBL document CHEMBL6127068, “Discovery of novel nitrofuran PROTAC-like compounds as dual inhibitors and degraders targeting STING” (Eur J Med Chem, 2024).

Molecules are shown by their SMILES. Activity calls are given as the source filed them. No cut-off for these calls is given here.

The target in series [1] is T1, Protein cereblon/Stimulator of interferon genes protein (Mus musculus) (UniProt Q3TBT3+Q8C7D2). The series is described as follows: In vivo inhibition of STING signaling pathway in C57BL/6J mouse assessed as inhibition of cisplatin-induced CXCL10 mRNA expression in kidney at 25 to 50 mg/kg by qPCR analysis. In kind it is functional, organism-based. The following applies: dose 25-50 mg/kg. For orientation: In qPCR the cycle at which signal appears reflects the starting amount.
T1 sequence (Q8C7D2 whole entry, looked up, one chain of several): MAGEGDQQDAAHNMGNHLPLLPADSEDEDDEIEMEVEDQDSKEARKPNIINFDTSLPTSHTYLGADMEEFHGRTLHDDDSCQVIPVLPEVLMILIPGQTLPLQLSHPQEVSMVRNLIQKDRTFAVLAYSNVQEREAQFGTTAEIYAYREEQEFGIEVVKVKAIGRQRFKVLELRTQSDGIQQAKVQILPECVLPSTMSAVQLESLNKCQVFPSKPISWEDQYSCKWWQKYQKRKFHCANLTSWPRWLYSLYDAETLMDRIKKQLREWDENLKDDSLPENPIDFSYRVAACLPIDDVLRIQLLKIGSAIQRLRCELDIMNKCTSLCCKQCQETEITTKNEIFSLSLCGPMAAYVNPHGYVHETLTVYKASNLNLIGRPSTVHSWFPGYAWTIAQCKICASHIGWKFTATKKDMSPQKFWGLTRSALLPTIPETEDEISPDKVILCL

Series [2] in a line: Toxicity against cisplatin-induced acute kidney injury C57BL/6J mouse model assessed as effect on liver morphology at 25 to 50 mg/kg by Hematoxylin-Eosin staining based microscopic analysis. In kind it is organism-based. The settings on record: in vivo, dose 25-50 mg/kg.
The target in series [3] is T2, Protein cereblon/Stimulator of interferon genes protein (Homo sapiens, UniProt Q96SW2+Q86WV6). The series is described as follows: PROTAC activity at CRBN/STING in human THP-1 cells assessed as inhibition of cGAMP-induced ISG56 mRNA expression incubated for 1 hr followed by stimulation with cGAMP for 24 hrs by qRT-PCR analysis. Format: cell-based. The following applies: dose 5-20 µM, time 25.0 hrs.
Target sequence in this assay (Q86WV6 whole entry, looked up): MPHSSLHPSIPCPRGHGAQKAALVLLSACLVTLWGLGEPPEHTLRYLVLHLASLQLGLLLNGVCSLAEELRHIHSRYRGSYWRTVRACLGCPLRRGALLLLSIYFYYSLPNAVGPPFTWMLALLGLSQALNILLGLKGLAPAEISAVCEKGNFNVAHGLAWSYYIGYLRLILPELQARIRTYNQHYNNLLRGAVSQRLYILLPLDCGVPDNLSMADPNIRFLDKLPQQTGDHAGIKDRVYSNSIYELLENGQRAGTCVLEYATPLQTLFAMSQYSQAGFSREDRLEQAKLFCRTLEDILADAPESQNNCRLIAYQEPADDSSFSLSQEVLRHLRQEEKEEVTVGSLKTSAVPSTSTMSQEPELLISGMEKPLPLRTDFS
Target sequence in this assay (Q96SW2 whole entry, looked up): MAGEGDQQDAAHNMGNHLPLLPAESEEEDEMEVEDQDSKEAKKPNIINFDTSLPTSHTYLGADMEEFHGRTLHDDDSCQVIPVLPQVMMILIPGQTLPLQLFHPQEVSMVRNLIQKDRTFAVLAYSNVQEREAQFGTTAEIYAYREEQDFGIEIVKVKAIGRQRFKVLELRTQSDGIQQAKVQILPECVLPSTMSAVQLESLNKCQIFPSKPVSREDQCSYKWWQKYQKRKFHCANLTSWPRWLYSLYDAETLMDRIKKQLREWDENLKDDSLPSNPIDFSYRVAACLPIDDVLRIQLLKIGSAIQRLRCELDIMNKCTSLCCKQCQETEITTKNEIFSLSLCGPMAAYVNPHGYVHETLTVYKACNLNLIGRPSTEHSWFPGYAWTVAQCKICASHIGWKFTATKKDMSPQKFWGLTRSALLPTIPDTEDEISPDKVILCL

Series [4] has as its target T3, Stimulator of interferon genes protein (Mus musculus) (UniProt Q3TBT3).
T3 sequence (whole entry): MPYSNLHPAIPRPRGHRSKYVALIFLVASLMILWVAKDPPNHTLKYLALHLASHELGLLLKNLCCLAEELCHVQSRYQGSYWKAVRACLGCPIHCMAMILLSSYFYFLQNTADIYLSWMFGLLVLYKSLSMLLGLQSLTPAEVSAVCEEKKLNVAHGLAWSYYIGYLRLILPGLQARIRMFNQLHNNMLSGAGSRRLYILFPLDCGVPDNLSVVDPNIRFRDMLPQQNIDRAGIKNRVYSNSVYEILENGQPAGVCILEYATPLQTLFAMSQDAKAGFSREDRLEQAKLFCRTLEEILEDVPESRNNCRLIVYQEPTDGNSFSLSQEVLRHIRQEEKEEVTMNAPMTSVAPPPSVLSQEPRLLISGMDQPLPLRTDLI
The series is described as follows: Inhibition of STING in mouse RAW264.7 cells assessed as reduction in DMXAA-induced TNF-alpha mRNA expression at 5 to 20 uM pretreated for 1 hr followed by stimulation with DMXAA for 24 hrs by qRT-CPR analysis. Format: cell-based. The settings on record: dose 5-20 µM, time 25.0 hrs.

Series [5] addresses T2, Protein cereblon/Stimulator of interferon genes protein. In words: PROTAC activity at CRBN/STING in human THP-1 cells assessed as inhibition of cGAMP-induced IL-6 mRNA expression incubated for 1 hr followed by stimulation with cGAMP for 24 hrs by qRT-PCR analysis. Format: cell-based. The following applies: dose 5-20 µM, time 25.0 hrs.
Target sequence in this assay (Q86WV6 whole entry, looked up): as the sequence (Q86WV6 whole entry, looked up) above
Target sequence in this assay (Q96SW2 whole entry, looked up): as the sequence (Q96SW2 whole entry, looked up) above
Series [6] can be described thus: Toxicity against cisplatin-induced acute kidney injury C57BL/6J mouse model assessed as effect on heart morphology at 25 to 50 mg/kg by Hematoxylin-Eosin staining based microscopic analysis. The settings on record: in vivo, dose 25-50 mg/kg. In kind it is organism-based.
Series [7] deals with T2, Protein cereblon/Stimulator of interferon genes protein. In words: PROTAC activity at CRBN/STING in human THP-1 cells assessed as inhibition of cGAMP-induced IFN-beta mRNA expression incubated for 1 hr followed by stimulation with cGAMP for 24 hrs by qRT-PCR analysis. In kind it is cell-based. The following applies: dose 5-20 µM, time 25.0 hrs.
Target sequence in this assay (Q86WV6 whole entry, looked up): as the sequence (Q86WV6 whole entry, looked up) above
Target sequence in this assay (Q96SW2 whole entry, looked up): as the sequence (Q96SW2 whole entry, looked up) above
In the next series the test system is THP-1. The series is described as follows: PROTAC activity at CRBN/Akt in human THP-1 cells assessed as induction of Akt degradation at 2.5 to 40 uM incubated for 24 hrs by western blot analysis. In kind it is cell-based. The settings on record: dose 2.5-40 µM. Background: In western blotting, separated proteins are transferred to a membrane and probed.
The target of series [8] is T2, Protein cereblon/Stimulator of interferon genes protein. In words: PROTAC activity at CRBN/STING in human THP-1 cells assessed as induction of STING degradation at 10 uM by western blot analysis. In kind it is cell-based. The settings on record: time 3-36 hrs, TDE = time-dependent effect.
Target sequence in this assay (Q86WV6 whole entry, looked up): as the sequence (Q86WV6 whole entry, looked up) above
Target sequence in this assay (Q96SW2 whole entry, looked up): as the sequence (Q96SW2 whole entry, looked up) above
Series [9] shares this target. In words: PROTAC activity at CRBN/STING in human THP-1 cells assessed as inhibition of cGAMP-induced ISG15 mRNA expression incubated for 1 hr followed by stimulation with cGAMP for 24 hrs by qRT-PCR analysis. In kind it is cell-based. The following applies: dose 5-20 µM, time 25.0 hrs.
Target sequence in this assay (Q86WV6 whole entry, looked up): as the sequence (Q86WV6 whole entry, looked up) above
Target sequence in this assay (Q96SW2 whole entry, looked up): as the sequence (Q96SW2 whole entry, looked up) above
Series [10] concerns the target T1, Protein cereblon/Stimulator of interferon genes protein (Mus musculus). The series is described as follows: In vivo inhibition of STING signaling pathway in C57BL/6J mouse assessed as inhibition of cisplatin-induced ISG15 mRNA expression in kidney at 25 to 50 mg/kg by qPCR analysis. In kind it is functional, organism-based. The following applies: dose 25-50 mg/kg.

In series [11] the target is T2, Protein cereblon/Stimulator of interferon genes protein. The series is described as follows: PROTAC activity at CRBN/STING in human THP-1 cells assessed as induction of STING degradation at 10 uM measured after 9 hrs by western blot analysis. In kind it is cell-based.
Target sequence in this assay (Q86WV6 whole entry, looked up): as the sequence (Q86WV6 whole entry, looked up) above
Target sequence in this assay (Q96SW2 whole entry, looked up): as the sequence (Q96SW2 whole entry, looked up) above
The target in series [12] is T1, Protein cereblon/Stimulator of interferon genes protein (Mus musculus). In words: In vivo inhibition of STING signaling pathway in C57BL/6J mouse assessed as inhibition of cisplatin-induced IFN-beta mRNA expression in kidney at 25 to 50 mg/kg by qPCR analysis. The settings on record: dose 25-50 mg/kg. In kind it is functional, organism-based.
In series [13] the test system is Mus musculus. The series is described as follows: Anti-inflammatory activity against cisplatin-induced acute kidney injury C57BL/6J mouse model assessed as decrease in plasma BUN level at 25 to 50 mg/kg. In kind it is functional, organism-based. The following applies: dose 25-50 mg/kg.
In series [14] the target is T2, Protein cereblon/Stimulator of interferon genes protein. The series is described as follows: PROTAC activity at CRBN/STING in human THP-1 cells assessed as inhibition of cGAMP-induced CXCL10 mRNA expression incubated for 1 hr followed by stimulation with cGAMP for 24 hrs by qRT-PCR analysis. The following applies: dose 5-20 µM, time 25.0 hrs. Format: cell-based.

Series [15] has the same target. In words: PROTAC activity at CRBN/STING in human THP-1 cells assessed as induction of STING degradation at 10 uM incubated for 24 hrs followed by replacement with fresh medium without compound and measured after 24 hrs by western bot analysis. In kind it is cell-based.
Series [16] has the same target. The series is described as follows: PROTAC activity at CRBN/STING in human THP-1 cells assessed as induction of STING degradation at 3 uM pretreated with lysosome inhibitor, bafilomycin for 1 hr followed by incubation with compound for 24 hrs by western blot analysis. Format: cell-based.
The target in series [17] is T1, Protein cereblon/Stimulator of interferon genes protein (Mus musculus). The series is described as follows: PROTAC activity at CRBN/STING in mouse RAW264.7 cells assessed as induction of STING degradation at 0.33 to 30 uM incubated for 24 hrs by western blot analysis. Format: cell-based. The following applies: dose 0.33-30 µM.
The target in series [18] is T2, Protein cereblon/Stimulator of interferon genes protein. The series is described as follows: PROTAC activity at CRBN/STING in human THP-1 cells assessed as induction of STING degradation incubated for 24 hrs by western blot analysis. In kind it is cell-based.
Target sequence in this assay (Q96SW2 whole entry): as the sequence (Q96SW2 whole entry, looked up) above
Target sequence in this assay (Q86WV6 whole entry): as the sequence (Q86WV6 whole entry, looked up) above
Series [19] has as its system Mus musculus. The series is described as follows: Anti-inflammatory activity against C57BL/6J mouse assessed as inhibition of cisplatin-induced hepatic impairment by measuring restoration of AST activity at 25 to 50 mg/kg. Format: functional, organism-based. The settings on record: dose 25-50 mg/kg.
The subject of series [20] is Mus musculus. The series is described as follows: Anti-inflammatory activity against cisplatin-induced acute kidney injury C57BL/6J mouse model assessed as decrease in kidney damage at 25 to 50 mg/kg by Hematoxylin-Eosin staining based microscopic analysis. Format: functional, organism-based. The settings on record: dose 25-50 mg/kg.
For series [21], the target named is T3, Stimulator of interferon genes protein (Mus musculus). The series is described as follows: Inhibition of STING in mouse RAW264.7 cells assessed as reduction in SR717-induced IRF3 phosphorylation at 0.3 to 20 uM pretreated for 1 hr followed by stimulation with SR717 for 24 hrs by western blot analysis. The following applies: dose 0.3-20 µM, time 25.0 hrs. Format: cell-based.

Series [22] has the same target. The series is described as follows: Inhibition of STING in mouse RAW264.7 cells assessed as reduction in DMXAA-induced CXCL10 mRNA expression at 5 to 20 uM pretreated for 1 hr followed by stimulation with DMXAA for 24 hrs by qRT-CPR analysis. The following applies: dose 5-20 µM, time 25.0 hrs. Format: cell-based.
The target of series [23] is T2, Protein cereblon/Stimulator of interferon genes protein. In words: PROTAC activity at CRBN/STING in human THP-1 cells assessed as inhibition of cGAMP-induced TNF-alpha mRNA expression incubated for 1 hr followed by stimulation with cGAMP for 24 hrs by qRT-PCR analysis. The following applies: dose 5-20 µM, time 25.0 hrs. Format: cell-based.

Broadly, the DC50 is the concentration giving 50% degradation. For `O=C1CCC(N2C(=O)c3cccc(OCc4cn(CCCCCC(=O)OCCc5ccc(NC(=O)c6ccc([N+](=O)[O-])o6)cc5)nn4)c3C2=O)C(=O)N1` (centres undefined), the inhibition entry in [1], in [10] and in series [12] was “Active” each time. The Activity result was “Non-Toxic” in series [2]; “Dose-Dependent Effect” in series [3]; “Dose-Dependent Effect” in series [5]; “Non-Toxic” in series [6]; “Dose-Dependent Effect” in series [7]; “Tde” in series [8]. Besides, the Activity result in series [9], in series [14] and in series [23] was “Dose-Dependent Effect” throughout. Also, the inhibition result in series [4], in series [21] and in [22] was “Dose-Dependent Effect” throughout. Moreover, the result (in the series with THP-1; in [15]; in series [16]; in series [17]) was inactive. Besides, the result (in series [11]; in the series on Mus musculus [13]; with Mus musculus [19]; in the series with Mus musculus [20]) was Active. The DC50 in series [18] was 2.58 µM.
